Drawing on PubChem BioAssay (NCI), this text covers TGI for 28 molecules.

Common to all, as to experiment: inhibition of tumour cell growth, NCI panel, 48 h
The test system of assay [1] is MALME-3M melanoma.
Assay [2] deals with NCI-H23 lung.
Assay [3] concerns OVCAR-4 ovarian.
In assay [4] the test system is SK-MEL-28 melanoma.

Each structure is given as a SMILES string.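 96-well plates; 48 h exposure; 5 concentrations. Endpoints by linear interpolation between flanking doses. Not reached: highest tested concentration assigned. TGI denotes the concentration required for complete inhibition of growth.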 Where a SMILES comes first, the peptide text is derived from it. [ ]: non-standard residue; d: D form. The star is where a group is joined. ξ: configuration not given here. NMeY = CN[C@@H](Cc1ccc(O)cc1)C(=O)O; Cbz = O=C(OCc1ccccc1)*; ξA = CC(N)C(=O)O

On to `COC(=O)c1cc(/C=C/C(=O)Cc2ccccc2)cn1S(=O)(=O)c1ccccc1`, for which the TGI in assay [1], in assay [2] and in assay [3] was more than 100 µM throughout.
Consider `CC(C)CCNC(=O)c1ccc(CNC(=O)/C=C/c2ccc3ccccc3c2)cc1`, for which the TGI in assay [2], in assay [3] and in assay [4] was more than 100 µM in each case.
Regarding `CC(=O)OC(COc1ccc2c(c1)[n+]([O-])nc(N)[n+]2[O-])CN1CCCCC1` (configuration not stated), the TGI is 24.2 µM in assay [1], 47.9 µM in assay [2], more than 100 µM in assay [3] and more than 100 µM in assay [4].
Regarding `CC1(C)N=C(C(N)=O)c2ncn(Cc3ccccc3)c2N1`, the TGI in assay [1], in assay [2], in assay [3] and in assay [4] was more than 100 µM each time.
With `Cn1c2ncccc2n2c(=O)cc(O)cc12`, the TGI in assay [1], in assay [2], in assay [3] and in assay [4] was more than 100 µM throughout.
For `Cc1cc(NS(=O)(=O)c2ccc(NO)cc2)no1`, the TGI in assay [1], in assay [3] and in assay [4] was more than 100 µM in each case.
As for `O=S(=O)(O)c1c(Cl)c(Cl)c(O)c2ncccc12`, the TGI in assay [1] was 31.1 µM; in assay [2], 29.6 µM; in assay [3] it was 47.1 µM; in assay [4], 39.8 µM.
Taken in the same sequence, the figures for `Cc1n[nH]c(=O)n1/N=C/c1ccco1` were more than 100 µM, more than 100 µM, more than 100 µM and more than 100 µM.
For `N#Cc1c(C#N)c(SSc2c(C#N)c(C#N)c(N)n2-c2cccc3ccccc23)n(-c2cccc3ccccc23)c1N` the same measures were 3.4 µM, more than 63.2 µM, 41.9 µM and more than 100 µM.
For `COc1ccc(/C(C)=C2\CCCN(Cc3ccccc3)C2)cc1` the same measures were 34.8 µM, 79.6 µM, more than 100 µM and 58.4 µM.
Turning to `CCCCCN1C(=O)C(Cc2ccccc2)N=C(c2ccc(O)cc2)c2cc(Cl)ccc21` (configuration not stated), the TGI in assay [1] was 23.6 µM; in assay [2], 17.7 µM; in assay [3] it was 22.1 µM; in assay [4] it was 29.7 µM.
As to `COc1ccccc1N1CCN(S(=O)(=O)c2ccc(Cl)cc2)C1=N`, the TGI in assay [2], in assay [3] and in assay [4] was more than 100 µM each time.
Turning to `CCOC(=O)/C=C(/C(=O)OCC)n1ccc(=O)n(Cc2cn(CCCCOC(C)=O)nn2)c1=O`, the TGI in assay [2], in assay [3] and in assay [4] was more than 100 µM in each case.
`C1=NN2C(c3ccccc3)=NOC2C2C(c3ccccc3)=NOC12` (configuration not stated): the TGI in assay [1] and in assay [2] was more than 100 µM throughout.
On to `CSC12c3cc(C)n(-c4ccc(I)cc4)c3CC(C)(C)CN1C(=O)C2Oc1ccccc1` (configuration not stated), for which the TGI in assay [1], in assay [2], in assay [3] and in assay [4] was more than 100 µM in each case.
With `Cc1cc(C)c(NS(=O)c2ccc(Cl)cc2)c(C)c1` (configuration not stated), the TGI in assay [1], in assay [2] and in assay [4] was more than 100 µM each time.
For the molecule `COC(C)=NCCC1=CCCCC1`, the TGI in assay [1], in assay [2], in assay [3] and in assay [4] was more than 100 µM throughout.
Consider `CO[P@@]1(=O)O[C@@H](c2ccccc2)[C@H](O)[C@@]1(O)c1ccccc1`, for which the TGI in assay [1], in assay [2], in assay [3] and in assay [4] was more than 100 µM each time.
`O=c1[nH][nH]c(=O)n1Cc1ccccc1`: the TGI in assay [1], in assay [2], in assay [3] and in assay [4] was more than 100 µM throughout.
Consider `N#Cc1c(-c2ccccc2)cn(C(=O)c2ccccc2)c1N`, for which the TGI in assay [1], in assay [2], in assay [3] and in assay [4] was more than 100 µM throughout.
`CC(=O)N1C(c2[nH]c3ccccc3c2Cc2ccccc2)CCN1c1ccccc1` (configuration not stated): the TGI in assay [1], in assay [2], in assay [3] and in assay [4] was more than 10 µM throughout.
Turning to `COc1ccc(C[C@@H](C(=O)N[C@@H](C)C(N)=O)N(C)C(=O)[C@@H]2CCCN2C(=O)[C@H](CC(C)C)NC(=O)C(C)NC(=O)OCc2ccccc2)cc1` (some centres not stated) (Cbz-[ξA]LP[NMeY](Me)A-NH2), the TGI in assay [1], in assay [2], in assay [3] and in assay [4] was more than 100 µM throughout.
For the molecule `CC(=O)Oc1ccc2c(c1)[nH]c1c3ccc(OC(C)=O)cc3oc(=O)c21`, the TGI in assay [1], in assay [2], in assay [3] and in assay [4] was more than 100 µM each time.
Consider `O=C(Nn1c(-c2ccccc2)nc2ccccc2c1=O)c1cccc([N+](=O)[O-])c1`, for which the TGI in assay [2], in assay [3] and in assay [4] was more than 100 µM each time.
As to `COc1ccc2nc3cccc([N+](=O)[O-])c3c(NCCC(=O)O)c2c1`, the TGI in assay [1], in assay [2], in assay [3] and in assay [4] was more than 10 µM in each case.
With `CCOC(=O)/C(=C\c1c[nH]c2ccccc12)P(=O)(OCC)OCC`, the TGI in assay [1] is more than 100 µM; in assay [2], 71.5 µM; in assay [3], 89.4 µM; in assay [4] it was 94.3 µM.
For `CCOC(=O)c1ccc(N=C2Sc3nc4ccccc4n3C2=Nc2ccc(C(=O)OCC)cc2)cc1` the same measures were 51.8 µM, 83.8 µM, 81.5 µM and more than 100 µM.
As for `Cc1cc2c(cc1Cl)SC(NNCCO)=NS2(=O)=O`, the TGI in assay [2], in assay [3] and in assay [4] was more than 100 µM in each case.
